Data published in patent US9611249B2, “1H-indazole-3-carboxamide compounds as glycogen synthase kinase 3 beta inhibitors” (AZIENDE CHIMICHE RIUNITE ANGELINI FRANCESCO A.C.R.A.F. …, priority 2012, dated 2017).

Columns and labels:
Assay type in all cases: biochemical
CDK2 (h) (cycA) = CDK2 (h) (cycA) (Homo sapiens (Human), UniProt P24941); assay: Kinase selectivity panel: CDK2 (h) (cycA); settings: 10 μM in duplicate, read-out: % inhibition of control values
Protocol: (§1) (a) Compounds 1 and 2 were tested against a panel of 60 kinases in order to assess their selectivity. The assays were chosen taking into consideration the diversity of assay families.
(§2) Tested kinases were representative of following kinase sub-families: • protein-serine/threonine kinases; • protein-tyrosine kinases; • other kinases; and • atypical kinases.
(§3) Human recombinant kinases were incubated in the presence of specific peptide substrates plus ATP for different times (10, 15, 30, 60 or 90 minutes) at 22° C. Phosphorylated substrate was detected by LANCE or HTRF technology (CISBIO, MA, USA). The compounds were tested at 10 μM in duplicate.
(§4) The results are expressed as a percentage of inhibition of control specific activity obtained in the presence of the test compounds and are reported in the following Table 5.
(§5) (b) Compounds 3, 8, 29 and 31 were tested against the same panel of 60 kinases under the same conditions described above for compounds 1 and 2.
(§6) The results are expressed as a percent of inhibition of control specific activity obtained in the presence of the test compounds and are reported in the following Table 6.

JAK2 (h) = JAK2 (h) (Homo sapiens (Human), UniProt O60674); assay: Kinase selectivity panel: JAK2 (h); settings: 10 μM in duplicate, read-out: % inhibition of control values
Protocol: as §1, §2, §3, §4, §5, §6

Pim1 kinase (h) = Pim1 kinase (h) (Homo sapiens (Human), UniProt P11309); assay: Kinase selectivity panel: Pim1 kinase (h); settings: 10 μM in duplicate, read-out: % inhibition of control values
Chain of Pim1 kinase (h) (P11309 whole entry): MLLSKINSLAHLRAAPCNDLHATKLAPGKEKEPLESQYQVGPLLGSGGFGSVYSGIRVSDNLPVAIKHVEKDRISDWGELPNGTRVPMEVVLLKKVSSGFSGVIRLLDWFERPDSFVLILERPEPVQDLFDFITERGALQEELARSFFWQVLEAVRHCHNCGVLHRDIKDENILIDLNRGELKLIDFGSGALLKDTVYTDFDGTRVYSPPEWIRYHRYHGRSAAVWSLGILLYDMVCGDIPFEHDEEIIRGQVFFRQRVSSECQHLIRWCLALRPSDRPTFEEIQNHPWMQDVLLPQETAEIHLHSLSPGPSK
Protocol: as §1, §2, §3, §4, §5, §6

CaMK4 (h) = CaMK4 (h) (Homo sapiens (Human), UniProt Q16566); assay: Kinase selectivity panel: CaMK4 (h); settings: 10 μM in duplicate, read-out: % inhibition of control values
Chain of CaMK4 (h) (Q16566 whole entry): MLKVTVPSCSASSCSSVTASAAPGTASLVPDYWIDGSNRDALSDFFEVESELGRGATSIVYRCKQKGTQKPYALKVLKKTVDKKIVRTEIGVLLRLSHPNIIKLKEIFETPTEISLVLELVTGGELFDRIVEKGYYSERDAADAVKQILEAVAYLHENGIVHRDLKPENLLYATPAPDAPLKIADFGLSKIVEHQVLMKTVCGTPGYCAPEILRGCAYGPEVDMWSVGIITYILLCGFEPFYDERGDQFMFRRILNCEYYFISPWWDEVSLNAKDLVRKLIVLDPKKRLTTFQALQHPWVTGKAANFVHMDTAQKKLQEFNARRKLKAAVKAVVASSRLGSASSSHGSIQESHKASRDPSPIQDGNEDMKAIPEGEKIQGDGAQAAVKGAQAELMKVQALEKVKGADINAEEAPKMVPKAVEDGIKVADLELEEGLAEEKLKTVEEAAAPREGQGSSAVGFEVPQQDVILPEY
Protocol: as §1, §2, §3, §4, §5, §6

PAK1 (h) = PAK1 (h) (Homo sapiens (Human), UniProt Q13153); assay: Kinase selectivity panel: PAK1 (h); settings: 10 μM in duplicate, read-out: % inhibition of control values
Chain of PAK1 (h) (Q13153 whole entry): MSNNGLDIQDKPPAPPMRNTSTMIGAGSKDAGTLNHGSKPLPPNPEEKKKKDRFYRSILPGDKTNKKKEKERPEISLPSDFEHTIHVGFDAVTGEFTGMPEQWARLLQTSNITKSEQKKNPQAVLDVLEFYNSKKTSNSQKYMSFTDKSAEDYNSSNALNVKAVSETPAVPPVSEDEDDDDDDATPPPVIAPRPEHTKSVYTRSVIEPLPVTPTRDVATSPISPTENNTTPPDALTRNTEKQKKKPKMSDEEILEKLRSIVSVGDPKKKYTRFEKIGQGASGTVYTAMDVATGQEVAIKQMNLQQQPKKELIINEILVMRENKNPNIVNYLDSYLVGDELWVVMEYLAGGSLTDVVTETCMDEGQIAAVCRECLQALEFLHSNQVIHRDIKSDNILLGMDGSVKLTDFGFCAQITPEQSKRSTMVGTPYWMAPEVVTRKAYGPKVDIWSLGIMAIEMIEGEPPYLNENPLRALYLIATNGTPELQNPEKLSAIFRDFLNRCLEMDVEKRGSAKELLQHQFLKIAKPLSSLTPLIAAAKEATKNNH
Protocol: as §1, §2, §3, §4, §5, §6

AurB/Aur1 kinase (h) = AurB/Aur1 kinase (h) (Homo sapiens (Human), UniProt Q96GD4); assay: Kinase selectivity panel: AurB/Aur1 kinase (h); settings: 10 μM in duplicate, read-out: % inhibition of control values
Chain of AurB/Aur1 kinase (h) (Q96GD4 whole entry): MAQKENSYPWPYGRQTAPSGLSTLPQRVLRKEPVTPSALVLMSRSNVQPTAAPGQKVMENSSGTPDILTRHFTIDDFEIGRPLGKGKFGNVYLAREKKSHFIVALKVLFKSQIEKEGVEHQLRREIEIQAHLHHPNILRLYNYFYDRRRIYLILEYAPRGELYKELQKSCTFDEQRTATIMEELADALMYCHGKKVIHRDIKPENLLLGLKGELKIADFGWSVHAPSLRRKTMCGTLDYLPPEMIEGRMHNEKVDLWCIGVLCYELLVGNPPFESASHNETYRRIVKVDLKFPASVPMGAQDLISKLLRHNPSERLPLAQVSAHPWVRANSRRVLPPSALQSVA
Protocol: as §1, §2, §3, §4, §5, §6

JAK1 (h) = JAK1 (h) (Homo sapiens (Human), UniProt P23458); assay: Kinase selectivity panel: JAK1 (h); settings: 10 μM in duplicate, read-out: % inhibition of control values
Protocol: as §1, §2, §3, §4, §5, §6

human GSK-3β = human GSK-3β (Homo sapiens (Human), UniProt P49841); assay: Activity on human GSK-3β, LANCE substrate phosphorylation assay
Protocol: Activity on human GSK-3β was assessed using the following methods (according to Meijer et al., Chem. Biol., 2003-10:1255-1266).
In a first screening assay, compounds were tested in duplicate at a concentration of 10 μM.
Human recombinant enzyme GSK-3β was incubated for 90 minutes at 22° C. in the presence of compounds or vehicle in a reaction buffer containing ATP plus 100 nM unphosphorylated specific substrate peptide (Ulight-[…] K-amide). Substrate phosphorylation was measured by LANCE technology (PerkinElmer, Conn., USA).
In a second assay, the same compounds were assayed at five concentrations ranging from 100 μM to 10 nM with ten-fold dilutions in duplicate.
The IC50 values (concentration causing a half maximal inhibition of control specific activity), reported in table 4, were determined by non-linear regression analysis of the inhibition curves generated with mean replicate values using Hill equation curve fitting.

CK1alpha (h) = CK1alpha (h) (Homo sapiens (Human), UniProt P48729); assay: Kinase selectivity panel: CK1alpha (h); settings: 10 μM in duplicate, read-out: % inhibition of control values
Chain of CK1alpha (h) (P48729 whole entry): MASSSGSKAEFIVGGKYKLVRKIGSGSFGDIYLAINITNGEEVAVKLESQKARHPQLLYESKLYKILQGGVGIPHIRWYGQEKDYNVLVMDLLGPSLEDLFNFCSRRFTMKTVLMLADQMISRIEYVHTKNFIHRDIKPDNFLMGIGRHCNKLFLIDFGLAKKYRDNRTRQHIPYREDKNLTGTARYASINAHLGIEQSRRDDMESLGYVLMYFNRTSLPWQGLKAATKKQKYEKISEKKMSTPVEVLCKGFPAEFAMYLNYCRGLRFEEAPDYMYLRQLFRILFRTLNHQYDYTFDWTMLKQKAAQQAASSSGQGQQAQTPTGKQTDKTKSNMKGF
Protocol: as §1, §2, §3, §4, §5, §6

DLK1 (h) (MAP3K12) = DLK1 (h) (MAP3K12) (Homo sapiens (Human), UniProt Q12852); assay: Kinase selectivity panel: DLK1 (h) (MAP3K12); settings: 10 μM in duplicate, read-out: % inhibition of control values
Chain of DLK1 (h) (MAP3K12) (Q12852 whole entry): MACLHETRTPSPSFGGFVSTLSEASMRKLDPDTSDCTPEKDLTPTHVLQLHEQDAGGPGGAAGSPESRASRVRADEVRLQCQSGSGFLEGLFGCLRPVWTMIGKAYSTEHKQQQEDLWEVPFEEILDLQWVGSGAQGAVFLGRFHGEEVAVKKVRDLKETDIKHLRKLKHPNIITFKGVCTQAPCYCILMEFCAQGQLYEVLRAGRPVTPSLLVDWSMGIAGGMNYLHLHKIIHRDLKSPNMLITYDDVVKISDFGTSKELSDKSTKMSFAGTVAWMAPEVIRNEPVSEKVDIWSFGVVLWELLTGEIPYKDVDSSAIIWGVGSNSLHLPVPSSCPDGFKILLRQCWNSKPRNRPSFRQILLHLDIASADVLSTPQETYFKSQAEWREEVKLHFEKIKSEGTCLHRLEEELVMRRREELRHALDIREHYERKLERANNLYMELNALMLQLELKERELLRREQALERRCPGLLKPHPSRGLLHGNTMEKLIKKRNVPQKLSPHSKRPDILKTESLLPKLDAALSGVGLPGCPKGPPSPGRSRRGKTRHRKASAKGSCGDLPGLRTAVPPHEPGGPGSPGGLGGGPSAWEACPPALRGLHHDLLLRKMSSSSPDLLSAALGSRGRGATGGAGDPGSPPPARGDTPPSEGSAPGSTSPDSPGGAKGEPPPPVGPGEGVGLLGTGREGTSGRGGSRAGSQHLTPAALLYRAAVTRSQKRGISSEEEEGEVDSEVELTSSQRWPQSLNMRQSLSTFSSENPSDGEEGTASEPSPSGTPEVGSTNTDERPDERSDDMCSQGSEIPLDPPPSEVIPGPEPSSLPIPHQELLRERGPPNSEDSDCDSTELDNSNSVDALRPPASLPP
Protocol: as §1, §2, §3, §4, §5, §6

c-Met kinase (h) = c-Met kinase (h) (Homo sapiens (Human), UniProt P08581); assay: Kinase selectivity panel: c-Met kinase (h); settings: 10 μM in duplicate, read-out: % inhibition of control values
Chain of c-Met kinase (h) (P08581 25-1390): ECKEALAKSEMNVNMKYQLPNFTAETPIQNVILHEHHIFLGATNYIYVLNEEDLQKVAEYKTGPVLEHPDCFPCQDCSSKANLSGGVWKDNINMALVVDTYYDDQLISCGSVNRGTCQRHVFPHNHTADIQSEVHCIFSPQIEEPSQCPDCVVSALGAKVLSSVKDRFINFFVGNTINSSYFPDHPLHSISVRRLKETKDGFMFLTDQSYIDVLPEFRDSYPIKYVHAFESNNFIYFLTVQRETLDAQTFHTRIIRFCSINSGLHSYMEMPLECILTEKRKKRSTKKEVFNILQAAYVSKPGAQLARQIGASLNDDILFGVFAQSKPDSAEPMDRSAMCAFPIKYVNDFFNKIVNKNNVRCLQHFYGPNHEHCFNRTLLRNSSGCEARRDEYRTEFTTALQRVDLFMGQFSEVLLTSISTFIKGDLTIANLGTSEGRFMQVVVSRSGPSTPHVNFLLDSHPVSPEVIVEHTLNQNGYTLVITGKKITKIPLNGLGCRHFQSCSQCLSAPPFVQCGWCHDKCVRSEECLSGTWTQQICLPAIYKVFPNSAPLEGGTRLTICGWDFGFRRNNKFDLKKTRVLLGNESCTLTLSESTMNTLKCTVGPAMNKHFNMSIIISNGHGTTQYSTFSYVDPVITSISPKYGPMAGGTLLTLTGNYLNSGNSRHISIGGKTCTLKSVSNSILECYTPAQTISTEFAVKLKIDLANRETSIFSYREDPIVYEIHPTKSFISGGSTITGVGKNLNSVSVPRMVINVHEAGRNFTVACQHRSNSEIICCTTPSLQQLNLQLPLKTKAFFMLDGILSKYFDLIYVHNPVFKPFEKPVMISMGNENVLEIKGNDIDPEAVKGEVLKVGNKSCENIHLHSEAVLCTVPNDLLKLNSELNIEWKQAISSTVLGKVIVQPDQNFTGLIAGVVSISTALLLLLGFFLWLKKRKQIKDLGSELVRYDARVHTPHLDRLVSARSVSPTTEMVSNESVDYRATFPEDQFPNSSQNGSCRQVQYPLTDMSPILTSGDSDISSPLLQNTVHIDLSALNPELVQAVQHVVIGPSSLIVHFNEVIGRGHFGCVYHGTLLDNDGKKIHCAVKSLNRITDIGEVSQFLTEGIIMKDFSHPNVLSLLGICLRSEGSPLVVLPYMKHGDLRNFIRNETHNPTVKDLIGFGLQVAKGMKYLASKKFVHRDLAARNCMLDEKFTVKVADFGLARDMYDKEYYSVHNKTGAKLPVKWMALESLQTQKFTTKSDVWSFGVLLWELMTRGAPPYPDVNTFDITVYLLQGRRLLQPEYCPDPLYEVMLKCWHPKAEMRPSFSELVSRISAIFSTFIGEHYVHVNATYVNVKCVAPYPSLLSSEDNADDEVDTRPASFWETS
Protocol: as §1, §2, §3, §4, §5, §6

EphB2 kinase (h) = EphB2 kinase (h) (Homo sapiens (Human), UniProt P29323); assay: Kinase selectivity panel: EphB2 kinase (h); settings: 10 μM in duplicate, read-out: % inhibition of control values
Protocol: as §1, §2, §3, §4, §5, §6

IRAK4 (h) = IRAK4 (h) (Homo sapiens (Human), UniProt Q9NWZ3); assay: Kinase selectivity panel: IRAK4 (h); settings: 10 μM in duplicate, read-out: % inhibition of control values
Protocol: as §1, §2, §3, §4, §5, §6

CDK5/p35 (h) = CDK5/p35 (h) (Homo sapiens (Human), UniProt Q00535); assay: Kinase selectivity panel: CDK5/p35 (h); settings: 10 μM in duplicate, read-out: % inhibition of control values
Protocol: as §1, §2, §3, §4, §5, §6

Src kinase (h) = Src kinase (h) (Homo sapiens (Human), UniProt P12931); assay: Kinase selectivity panel: Src kinase (h); settings: 10 μM in duplicate, read-out: % inhibition of control values
Chain of Src kinase (h) (P12931 whole entry, looked up): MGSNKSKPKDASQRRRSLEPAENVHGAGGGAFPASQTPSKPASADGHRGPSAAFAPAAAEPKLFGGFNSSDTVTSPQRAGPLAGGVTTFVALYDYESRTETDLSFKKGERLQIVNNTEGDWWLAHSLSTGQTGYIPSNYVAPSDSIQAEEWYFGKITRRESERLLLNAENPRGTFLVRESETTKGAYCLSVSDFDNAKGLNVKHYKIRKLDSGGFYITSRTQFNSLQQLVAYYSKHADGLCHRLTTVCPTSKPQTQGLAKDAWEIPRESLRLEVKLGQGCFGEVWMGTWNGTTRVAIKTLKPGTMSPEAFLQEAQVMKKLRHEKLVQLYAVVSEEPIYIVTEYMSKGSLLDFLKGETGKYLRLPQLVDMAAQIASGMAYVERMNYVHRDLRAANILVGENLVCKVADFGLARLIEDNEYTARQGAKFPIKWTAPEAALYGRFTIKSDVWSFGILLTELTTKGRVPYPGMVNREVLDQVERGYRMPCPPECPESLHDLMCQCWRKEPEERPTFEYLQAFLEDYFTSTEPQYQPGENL
Protocol: as §1, §2, §3, §4, §5, §6

TRKA (h) = TRKA (h) (Homo sapiens (Human), UniProt P04629); assay: Kinase selectivity panel: TRKA (h); settings: 10 μM in duplicate, read-out: % inhibition of control values
Protocol: as §1, §2, §3, §4, §5, §6

CHK1 (h) = CHK1 (h) (Homo sapiens (Human), UniProt O14757); assay: Kinase selectivity panel: CHK1 (h); settings: 10 μM in duplicate, read-out: % inhibition of control values
Protocol: as §1, §2, §3, §4, §5, §6

Akt1/PKBalpha (h) = Akt1/PKBalpha (h) (Homo sapiens (Human), UniProt P31749); assay: Kinase selectivity panel: Akt1/PKBalpha (h); settings: 10 μM in duplicate, read-out: % inhibition of control values
Protocol: as §1, §2, §3, §4, §5, §6

PhKgamma 2 (h) = PhKgamma 2 (h) (Homo sapiens (Human), UniProt P15735); assay: Kinase selectivity panel: PhKgamma 2 (h); settings: 10 μM in duplicate, read-out: % inhibition of control values
Protocol: as §1, §2, §3, §4, §5, §6

PKCbeta 1 (h) = PKCbeta 1 (h) (Homo sapiens (Human), UniProt P05771); assay: Kinase selectivity panel: PKCbeta 1 (h); settings: 10 μM in duplicate, read-out: % inhibition of control values
Protocol: as §1, §2, §3, §4, §5, §6

GSK3beta (h) = GSK3beta (h) (Homo sapiens (Human), UniProt P49841); assay: Kinase selectivity panel: GSK3beta (h); settings: GSK3beta (h); 10 μM in duplicate; read-out: % inhibition of control values
Protocol: as §1, §2, §3, §4, §6

p38alpha kinase (h) = p38alpha kinase (h) (Homo sapiens (Human), UniProt Q16539); assay: Kinase selectivity panel: p38alpha kinase (h); settings: 10 μM in duplicate, read-out: % inhibition of control values
Protocol: as §1, §2, §3, §4, §5, §6

MAPKAPK2 (h) = MAPKAPK2 (h) (Homo sapiens (Human), UniProt P49137); assay: Kinase selectivity panel: MAPKAPK2 (h); settings: 10 μM in duplicate, read-out: % inhibition of control values
Protocol: as §1, §2, §3, §4, §5, §6

DYRK1a (h) = DYRK1a (h) (Homo sapiens (Human), UniProt Q13627); assay: Kinase selectivity panel: DYRK1a (h); settings: 10 μM in duplicate, read-out: % inhibition of control values
Protocol: as §1, §2, §3, §4, §5, §6

MYT1 kinase (h) = MYT1 kinase (h) (Homo sapiens (Human), UniProt Q99640); assay: Kinase selectivity panel: MYT1 kinase (h); settings: 10 μM in duplicate, read-out: % inhibition of control values
Protocol: as §1, §2, §3, §4, §5, §6

Ret kinase (h) = Ret kinase (h) (Homo sapiens (Human), UniProt P07949); assay: Kinase selectivity panel: Ret kinase (h); settings: 10 μM in duplicate, read-out: % inhibition of control values
Protocol: as §1, §2, §3, §4, §5, §6

FGFR4 kinase (h) = FGFR4 kinase (h) (Homo sapiens (Human), UniProt P22455); assay: Kinase selectivity panel: FGFR4 kinase (h); settings: 10 μM in duplicate, read-out: % inhibition of control values
Protocol: as §1, §2, §3, §4, §5, §6

Abl kinase (h) = Abl kinase (h) (Homo sapiens (Human), UniProt P00519); assay: Kinase selectivity panel: Abl kinase (h); settings: 10 μM in duplicate, read-out: % inhibition of control values
Protocol: as §1, §2, §3, §4, §5, §6

PKCgamma (h) = PKCgamma (h) (Homo sapiens (Human), UniProt P05129); assay: Kinase selectivity panel: PKCgamma (h); settings: 10 μM in duplicate, read-out: % inhibition of control values
Protocol: as §1, §2, §3, §4, §5, §6

| inhibition at 10 µM (CDK2 (h) (cycA)) [%] | inhibition at 10 µM (JAK2 (h)) [%] | inhibition at 10 µM (Pim1 kinase (h)) [%] | inhibition at 10 µM (CaMK4 (h)) [%] | inhibition at 10 µM (PAK1 (h)) [%] | inhibition at 10 µM (AurB/Aur1 kinase (h)) [%] | inhibition at 10 µM (JAK1 (h)) [%] | inhibition at 10 µM (CK1alpha (h)) [%] | inhibition at 10 µM (DLK1 (h) (MAP3K12)) [%] | inhibition at 10 µM (c-Met kinase (h)) [%] | inhibition at 10 µM (EphB2 kinase (h)) [%] | inhibition at 10 µM (IRAK4 (h)) [%] | inhibition at 10 µM (CDK5/p35 (h)) [%] | inhibition at 10 µM (Src kinase (h)) [%] | inhibition at 10 µM (TRKA (h)) [%] | inhibition at 10 µM (CHK1 (h)) [%] | inhibition at 10 µM (Akt1/PKBalpha (h)) [%] | inhibition at 10 µM (PhKgamma 2 (h)) [%] | inhibition at 10 µM (PKCbeta 1 (h)) [%] | inhibition at 10 µM (p38alpha kinase (h)) [%] | Compound | also measured |
| --- | --- | --- | --- | --- | --- | --- | --- | --- | --- | --- | --- | --- | --- | --- | --- | --- | --- | --- | --- | --- | --- |
| 18 | 0 | 0 | 0 | 1 | 0 | 0 | 0 | 0 | 3 | 4 | 0 | 19 | 1 | 1 | 5 | 0 | 30 | 0 | 0 | COc1ccc2[nH]nc(C(=O)NCC3CCN(CC(=O)O)CC3)c2c1 [Compound 1, [4-({[(5-methoxy-1H-indazol-3-yl)-carbonyl]amino}methyl)piperidin-1-yl]acetic acid] | inhibition at 10 µM (human GSK-3β; 10 μM, in duplicate, first screening assay): 92%; IC50 (human GSK-3β; compounds 1 to 15, LANCE assay, five concentrations 100 μM to 10 nM): 670 nM; inhibition at 10 µM (GSK3beta (h)): 94%; inhibition at 10 µM (MAPKAPK2 (h)): 0%; inhibition at 10 µM (DYRK1a (h)): 76%; inhibition at 10 µM (MYT1 kinase (h)): 0%; inhibition at 10 µM (Ret kinase (h)): 0%; inhibition at 10 µM (FGFR4 kinase (h)): 0%; inhibition at 10 µM (Abl kinase (h)): 0%; inhibition at 10 µM (PKCgamma (h)): 3% |
| 92 | 23 | 17 | 4 | 3 | 0 | 7 | 6 | 58 | 7 | 2 | 0 | 77 | 0 | 14 | 0 | 0 | 0 | 28 | 1 | COCCN1CCC(CNC(=O)c2n[nH]c3ccc(-c4cccc(F)c4F)cc23)CC1 [Compound 8, 5-(2,3-difluorophenyl)-N-{[1-(2-methoxyethyl)piperidin-4-yl]methyl}-1H-indazole-3-carboxamide] | inhibition at 10 µM (MAPKAPK2 (h)): 17%; inhibition at 10 µM (DYRK1a (h)): 99%; inhibition at 10 µM (MYT1 kinase (h)): 20%; inhibition at 10 µM (Ret kinase (h)): 0%; inhibition at 10 µM (FGFR4 kinase (h)): 2%; inhibition at 10 µM (Abl kinase (h)): 0%; inhibition at 10 µM (PKCgamma (h)): 0% |
